{"source": "DBAASP", "assay_in_all_cases": "≥ marks a high value that may be exact or a test limit, other limits are often not marked, values filed in µg/mL are converted to µM", "key": {"[1]": {"system": "Enterobacter cloacae NHTCC 53001"}, "[2]": {"system": "Proteus mirabilis ATCC 25933"}, "[3]": {"system": "Staphylococcus epidermidis RP62A"}, "[4]": {"system": "Klebsiella pneumoniae KK3 9904"}, "[5]": {"system": "Staphylococcus aureus NCTC 8325"}, "[6]": {"system": "Candida albicans ATCC 90028"}, "[7]": {"system": "Enterococcus faecalis ATCC 29212"}, "[8]": {"system": "Escherichia coli ATCC 25922"}, "[9]": {"system": "Pseudomonas aeruginosa ATCC 27853"}, "[10]": {"system": "Staphylococcus aureus ATCC 6538P"}, "[11]": {"system": "Shigella dysenteriae ATCC 9752"}, "[12]": {"system": "Staphylococcus epidermidis ATCC 12228"}, "[13]": {"system": "Micrococcus luteus ATCC 10240"}, "[14]": {"system": "Klebsiella pneumoniae ATCC 10031"}, "[15]": {"system": "Bacillus subtilis ATCC 6633"}, "[16]": {"system": "Salmonella enterica subsp. enterica serovar Typhimurium ATCC 14028"}, "Staphylococcus aureus": {"system": "Staphylococcus aureus"}, "[17]": {"system": "Staphylococcus aureus ATCC 25923"}, "[18]": {"system": "Salmonella enterica subsp. enterica serovar Pullorum ATCC 7913"}, "Escherichia coli K88": {"system": "Escherichia coli K88"}, "[19]": {"system": "Candida parapsilosis CGMCC 2.3989"}, "Escherichia coli K99": {"system": "Escherichia coli K99"}, "Escherichia coli 078": {"system": "Escherichia coli 078"}, "[20]": {"system": "Candida tropicalis CGMCC 2.1975"}, "[21]": {"system": "Staphylococcus aureus ATCC 43300"}, "[22]": {"system": "Salmonella enterica subsp. enterica serovar Typhimurium C77-31"}, "Escherichia coli UB1005": {"system": "Escherichia coli UB1005"}, "[23]": {"system": "Bacillus subtilis CMCC 63501"}, "[24]": {"system": "Salmonella typhimurium ATCC 7731"}, "[25]": {"system": "Staphylococcus aureus ATCC 29213"}, "[26]": {"system": "Streptococcus mitis ATCC 903"}, "[27]": {"system": "Streptococcus mutans UA159"}, "[28]": {"system": "Streptococcus gordonii Challis DL1"}, "[29]": {"system": "Streptococcus sanguinis NY101"}, "[30]": {"system": "Pseudomonas aeruginosa PAK"}}, "note": "“And” between values parts separate entries of the source, which are not always exact repeats. Identical values can stand only once."}
{"smiles": "CC[C@H](C)[C@H](NC(=O)CN)C(=O)N[C@@H](CC(C)C)C(=O)N[C@@H](CO)C(=O)N[C@@H](CO)C(=O)N[C@@H](Cc1ccccc1)C(=O)N[C@@H](CCCCN)C(=O)NCC(=O)N[C@H](C(=O)N[C@@H](C)C(=O)N[C@@H](CCCCN)C(=O)NCC(=O)N[C@H](C(=O)N[C@@H](C)C(=O)N[C@@H](CCCCN)C(=O)N[C@@H](CC(N)=O)C(=O)N[C@@H](CC(C)C)C(=O)N[C@@H](C)C(=O)NCC(=O)N[C@@H](CCCCN)C(=O)N[C@@H](CC(C)C)C(=O)N[C@@H](CC(C)C)C(=O)N[C@@H](CC(=O)O)C(=O)N[C@@H](CCC(=O)O)C(=O)N[C@@H](CC(C)C)C(=O)N[C@@H](CCCCN)C(=O)N[C@H]1CSSC[C@@H](C(=O)O)NC(=O)CNC(=O)[C@H]([C@@H](C)O)NC(=O)[C@H]([C@@H](C)CC)NC(=O)[C@H](CCCCN)NC1=O)C(C)C)C(C)C", "note": "[GILSSFKGVAKGVAKNLAGKLLDELKCKITGC]", "values": [{"measurement": "MIC", "setting": "[1]", "result": 5, "unit": "µM"}, {"measurement": "MIC", "setting": "[2]", "result": "≥ 40", "unit": "µM"}, {"measurement": "MIC", "setting": "[3]", "result": 20, "unit": "µM"}, {"measurement": "MIC", "setting": "[4]", "result": 10, "unit": "µM"}, {"measurement": "MIC", "setting": "[5]", "result": 20, "unit": "µM"}, {"measurement": "MIC", "setting": "[6]", "result": "≥ 40", "unit": "µM"}, {"measurement": "MIC", "setting": "[7]", "result": "> 40", "unit": "µM"}, {"measurement": "MIC", "setting": "[8]", "result": 5, "unit": "µM"}, {"measurement": "MIC", "setting": "[9]", "result": 5, "unit": "µM"}]}
{"smiles": "CC(C)C[C@H](NC(=O)[C@H](Cc1c[nH]c2ccccc12)NC(=O)[C@H](CCCCN)NC(=O)[C@H](CC(C)C)NC(=O)[C@@H](N)CC(C)C)C(=O)N[C@@H](CCCCN)C(=O)N[C@@H](CCCCN)C(N)=O", "note": "[LLKWLKK]", "values": [{"measurement": "MIC", "setting": "[10]", "result": "≥ 215", "unit": "µM"}, {"measurement": "MIC", "setting": "[11]", "result": "≥ 108", "unit": "µM"}, {"measurement": "MIC", "setting": "[12]", "result": "> 215", "unit": "µM"}, {"measurement": "MIC", "setting": "[13]", "result": 26.9, "unit": "µM"}, {"measurement": "MIC", "setting": "[14]", "result": "≥ 215", "unit": "µM"}, {"measurement": "MIC", "setting": "[15]", "result": "≥ 108", "unit": "µM"}, {"measurement": "MIC", "setting": "[8]", "result": "> 215", "unit": "µM"}, {"measurement": "MIC", "setting": "[16]", "result": "> 215", "unit": "µM"}, {"measurement": "MIC", "setting": "[9]", "result": "> 215", "unit": "µM"}]}
{"smiles": "CC[C@H](C)[C@H](NC(=O)[C@H](Cc1cnc[nH]1)NC(=O)CNC(=O)[C@H](C)NC(=O)[C@@H](NC(=O)[C@@H](NC(=O)[C@H](CCCCN)NC(=O)[C@@H](NC(=O)[C@H](Cc1ccccc1)NC(=O)[C@H](C)NC(=O)[C@H](CCCCN)NC(=O)[C@H](C)NC(=O)[C@H](C)NC(=O)CNC(=O)[C@H](CCCCN)NC(=O)[C@H](CC(C)C)NC(=O)[C@@H](NC(=O)[C@H](CC(=O)O)NC(=O)[C@H](CCCN=C(N)N)NC(=O)[C@H](Cc1ccccc1)NC(=O)CN)C(C)C)C(C)C)[C@@H](C)O)C(C)C)C(=O)N[C@@H](C)C(=O)N[C@@H](CC(N)=O)C(N)=O", "note": "[GFRDVLKGAAKAFVKTVAGHIAN]", "values": [{"measurement": "MIC", "setting": "[1]", "result": 6, "unit": "µM"}, {"measurement": "MIC", "setting": "[2]", "result": "≥ 100", "unit": "µM"}, {"measurement": "MIC", "setting": "Staphylococcus aureus", "result": 32, "unit": "µM"}, {"measurement": "MIC", "setting": "[3]", "result": "≥ 50", "unit": "µM"}, {"measurement": "MIC", "setting": "[4]", "result": 6, "unit": "µM"}, {"measurement": "MIC", "setting": "[5]", "result": "≥ 100", "unit": "µM"}, {"measurement": "MIC", "setting": "[6]", "result": "≥ 100", "unit": "µM"}, {"measurement": "MIC", "setting": "[7]", "result": "> 100", "unit": "µM"}, {"measurement": "MIC", "setting": "[8]", "result": 3, "unit": "µM"}, {"measurement": "MIC", "setting": "[9]", "result": 25, "unit": "µM"}]}
{"smiles": "CC[C@H](C)[C@H](NC(=O)[C@H](CCCN=C(N)N)NC(=O)[C@H](C)NC(=O)[C@H](C)N)C(=O)N[C@H](C(=O)N[C@@H](CC(C)C)C(=O)N[C@@H](CCCN=C(N)N)C(=O)N[C@@H](CC(C)C)C(=O)N[C@@H](CCCN=C(N)N)C(=O)N[C@@H](Cc1ccccc1)C(=O)N[C@@H](CCCN=C(N)N)C(N)=O)[C@@H](C)CC", "note": "[AARIILRLRFR]", "values": [{"measurement": "MIC", "setting": "[17]", "result": 2, "unit": "µM"}, {"measurement": "MIC", "setting": "[18]", "result": 4, "unit": "µM"}, {"measurement": "MIC", "setting": "Escherichia coli K88", "result": 4, "unit": "µM"}, {"measurement": "MIC", "setting": "[19]", "result": 4, "unit": "µM"}, {"measurement": "MIC", "setting": "Escherichia coli K99", "result": 2, "unit": "µM"}, {"measurement": "MIC", "setting": "[12]", "result": 2, "unit": "µM"}, {"measurement": "MIC", "setting": "Escherichia coli 078", "result": 4, "unit": "µM"}, {"measurement": "MIC", "setting": "[20]", "result": 4, "unit": "µM"}, {"measurement": "MIC", "setting": "[21]", "result": 2, "unit": "µM"}, {"measurement": "MIC", "setting": "[22]", "result": 4, "unit": "µM"}, {"measurement": "MIC", "setting": "Escherichia coli UB1005", "result": 4, "unit": "µM"}, {"measurement": "MIC", "setting": "[16]", "result": 4, "unit": "µM"}, {"measurement": "MIC", "setting": "[9]", "result": 8, "unit": "µM"}]}
{"smiles": "CC[C@H](C)[C@H](NC(=O)[C@H](C)NC(=O)[C@H](CCCCN)NC(=O)[C@H](Cc1ccc(O)cc1)NC(=O)[C@H](CC(C)C)NC(=O)[C@H](C)NC(=O)[C@@H](NC(=O)[C@@H](NC(=O)[C@H](CC(N)=O)NC(=O)[C@@H](NC(=O)[C@H](C)NC(=O)[C@@H](NC(=O)[C@@H]1CCCN1C(=O)[C@@H](NC(=O)[C@H](CC(C)C)NC(=O)[C@@H]1CCCN1C(=O)[C@H](Cc1c[nH]c2ccccc12)NC(=O)[C@H](Cc1ccccc1)NC(=O)[C@H](CCCN=C(N)N)NC(=O)[C@@H](N)CCCCN)C(C)C)C(C)C)[C@@H](C)CC)[C@@H](C)O)C(C)C)C(=O)N[C@@H](CCCN=C(N)N)C(=O)N[C@@H](CCCN=C(N)N)C(=O)N[C@@H](CCCCN)C(N)=O", "note": "[KRFWPLVPVAINTVALYKAIRRK]", "values": [{"measurement": "MIC", "setting": "[23]", "result": 4, "unit": "µM"}, {"measurement": "MIC", "setting": "[24]", "result": 2, "unit": "µM"}, {"measurement": "MIC", "setting": "[12]", "result": 4, "unit": "µM"}, {"measurement": "MIC", "setting": "[25]", "result": 4, "unit": "µM"}, {"measurement": "MIC", "setting": "Escherichia coli UB1005", "result": 4, "unit": "µM"}, {"measurement": "MIC", "setting": "[16]", "result": 4, "unit": "µM"}, {"measurement": "MIC", "setting": "[9]", "result": "4 µM and > 2 µM"}]}
{"smiles": "CC[C@H](C)[C@H](NC(=O)[C@H](Cc1ccccc1)NC(=O)[C@H](Cc1cnc[nH]1)NC(=O)[C@H](CCCCN)NC(=O)[C@@H](NC(=O)[C@@H](N)Cc1ccccc1)[C@@H](C)CC)C(=O)N[C@@H](Cc1cnc[nH]1)C(=O)N[C@@H](CCCN=C(N)N)C(=O)N[C@@H](Cc1ccccc1)C(=O)NCC(=O)NCC(=O)NCC(=O)N[C@@H](CCCN=C(N)N)C(=O)N[C@@H](Cc1c[nH]c2ccccc12)C(=O)N[C@@H](CCCN=C(N)N)C(=O)N[C@@H](Cc1c[nH]c2ccccc12)C(=O)N[C@@H](CCCN=C(N)N)C(=O)N[C@@H](Cc1c[nH]c2ccccc12)C(=O)N[C@@H](Cc1ccccc1)C(N)=O", "note": "[FIKHFIHRFGGGRWRWRWF]", "values": [{"measurement": "MIC", "setting": "[26]", "result": 12.4, "unit": "µM"}, {"measurement": "MIC", "setting": "Staphylococcus aureus", "result": 12.4, "unit": "µM"}, {"measurement": "MIC", "setting": "[27]", "result": 3.09, "unit": "µM"}, {"measurement": "MIC", "setting": "[28]", "result": 12.4, "unit": "µM"}, {"measurement": "MIC", "setting": "[29]", "result": 12.4, "unit": "µM"}, {"measurement": "MIC", "setting": "[30]", "result": 24.1, "unit": "µM"}]}
{"smiles": "CC[C@H](C)[C@H](NC(=O)[C@H](Cc1ccccc1)NC(=O)[C@H](Cc1cnc[nH]1)NC(=O)[C@H](CCCCN)NC(=O)[C@@H](NC(=O)[C@@H](N)Cc1ccccc1)[C@@H](C)CC)C(=O)N[C@@H](Cc1cnc[nH]1)C(=O)N[C@@H](CCCN=C(N)N)C(=O)N[C@@H](Cc1ccccc1)C(=O)N[C@@H](CO)C(=O)NCC(=O)NCC(=O)N[C@@H](CC(C)C)C(=O)N[C@@H](CCC(N)=O)C(=O)N[C@@H](CC(C)C)C(=O)N[C@@H](CC(C)C)C(=O)N[C@@H](CCCCN)C(=O)N[C@@H](CCC(N)=O)C(=O)N[C@@H](CC(C)C)C(=O)N[C@@H](CC(C)C)C(=O)N[C@@H](CCCCN)C(=O)N[C@@H](CC(C)C)C(=O)N[C@@H](CC(C)C)C(=O)N[C@@H](CCCCN)C(=O)N[C@@H](CCC(N)=O)C(=O)N[C@@H](Cc1ccccc1)C(N)=O", "note": "[FIKHFIHRFSGGLQLLKQLLKLLKQF]", "values": [{"measurement": "MIC", "setting": "[26]", "result": 19.8, "unit": "µM"}, {"measurement": "MIC", "setting": "Staphylococcus aureus", "result": 10.1, "unit": "µM"}, {"measurement": "MIC", "setting": "[27]", "result": 5.07, "unit": "µM"}, {"measurement": "MIC", "setting": "[28]", "result": 2.54, "unit": "µM"}, {"measurement": "MIC", "setting": "[29]", "result": 10.1, "unit": "µM"}, {"measurement": "MIC", "setting": "[30]", "result": 10.1, "unit": "µM"}]}
